Measurements reported in ChEMBL document CHEMBL5331086, “Natural product evodiamine-inspired medicinal chemistry: Anticancer activity, structural optimization and structure-activity relationship” (Eur J Med Chem, 2023).
≈ marks a conversion by molar mass, not a printed value. Blank lines part the entries; values can stand above or below the compound they belong to.

Tests used:
HCT-116 [1] = experiment: Antiproliferative activity against human HCT-116 cells assessed as reduction in cell viability incubated for 48 hrs by MTT assay; assay type: functional, cell-based; conditions: HCT-116, 48 h
MDA-MB-435 [2] = experiment: Antiproliferative activity against human MDA-MB-435 cells; assay type: functional, cell-based
A549 [3] = experiment: Antiproliferative activity against human A549 cells assessed as reduction in cell viability incubated for 48 hrs by MTT assay; assay type: functional, cell-based; conditions: A549, 48 h
A549 [4] = experiment: Antiproliferative activity against human A549 cells; assay type: functional, cell-based
HCT-116 [5] = experiment: Antiproliferative activity against human HCT-116 cells; assay type: functional, cell-based
[6] = Solubility of compound in water; assay type: physicochemical
MDA-MB-435 [7] = experiment: Cytotoxicity against human MDA-MB-435 cells assessed as reduction in cell viability measured after 24 hrs by MTT assay; assay type: functional, cell-based; conditions: MDA-MB-435, 24 h
A549 [8] = experiment: Cytotoxicity against human A549 cells assessed as reduction in cell viability measured after 24 hrs by MTT assay; assay type: functional, cell-based; conditions: A549, 24 h
HCT-116 [9] = experiment: Cytotoxicity against human HCT-116 cells assessed as reduction in cell viability measured after 24 hrs by MTT assay; assay type: functional, cell-based; conditions: HCT-116, 24 h
MCF7 [10] = experiment: Antiproliferative activity against human MCF7 cells assessed as reduction in cell viability incubated for 48 hrs by MTT assay; assay type: functional, cell-based; conditions: MCF7, 48 h
[11] = Solubility of compound in water incubated for 24 hrs by HPLC-UV analysis; assay type: physicochemical
Huh-7 = experiment: Antiproliferative activity against human Huh-7 cells assessed as reduction in cell viability incubated for 48 hrs by CCK-8 assay; assay type: functional, cell-based; conditions: Huh-7, 48 h
HCCLM9 = experiment: Antiproliferative activity against human HCCLM9 cells assessed as reduction in cell growth incubated for 48 hrs by CCK-8 assay; assay type: functional, cell-based; conditions: HCCLM9, 48 h
HepG2 [12] = experiment: Antiproliferative activity against human HepG2 cells assessed as reduction in cell viability incubated for 48 hrs by CCK-8 assay; assay type: functional, cell-based; conditions: HepG2, 48 h
HCT-116 [13] = experiment: Antiproliferative activity against human HCT-116 cells assessed as reduction in cell viability incubated for 48 hrs by CCK-8 assay; assay type: functional, cell-based; conditions: HCT-116, 48 h
SW-620 = experiment: Cytotoxicity against human SW-620 cells assessed as reduction in cell viability incubated for 48 hrs by CCK-8 assay; assay type: functional, cell-based; conditions: SW-620, 48 h
MDA-MB-231 = experiment: Antiproliferative activity against human MDA-MB-231 cells assessed as reduction in cell viability incubated for 48 hrs by CCK-8 assay; assay type: functional, cell-based; conditions: MDA-MB-231, 48 h
HepG2 [14] = experiment: Antiproliferative activity against human HepG2 cells assessed as reduction in cell viability incubated for 24 hrs by MTT assay; assay type: functional, cell-based; conditions: HepG2, 24 h
MCF7 [15] = experiment: Antiproliferative activity against human MCF7 cells assessed as reduction in cell viability incubated for 24 hrs by MTT assay; assay type: functional, cell-based; conditions: MCF7, 24 h
[16] = Antiproliferative activity against human HUVEC cells; assay type: toxicity, cell-based
MCF7 [17] = experiment: Antiproliferative activity against human MCF7 cells; assay type: functional, cell-based
MCF7 [18] = experiment: Cytotoxicity against human MCF7 cells assessed as reduction in cell viability incubated for 48 hrs by MTT assay; assay type: functional, cell-based; conditions: MCF7, 48 h
NCI-H460 = experiment: Cytotoxicity against human NCI-H460 cells assessed as reduction in cell viability incubated for 48 hrs by MTT assay; assay type: functional, cell-based; conditions: NCI-H460, 48 h
DU-145 = experiment: Cytotoxicity against human DU-145 cells assessed as cell growth inhibition measured after 48 hrs by MTT assay; assay type: functional, cell-based; conditions: DU-145, 48 h
HCT-15 = experiment: Cytotoxicity against human HCT-15 cells assessed as reduction in cell viability incubated for 48 hrs by MTT assay; assay type: functional, cell-based; conditions: HCT-15, 48 h
SF-268 = experiment: Cytotoxicity against human SF-268 cells assessed as reduction in cell viability incubated for 48 hrs by MTT assay; assay type: functional, cell-based; conditions: SF-268, 48 h
Histone deacetylase 1 = Histone deacetylase 1 (Homo sapiens, UniProt Q13547); experiment: Inhibition of HDAC1 (unknown origin)
Histone deacetylase 2 = Histone deacetylase 2 (Homo sapiens, UniProt Q92769); experiment: Inhibition of HDAC2 (unknown origin)
HGC-27 = experiment: Antiproliferative activity against human HGC-27 cells assessed as reduction in cell viability measured after 48 hrs by MTT assay; assay type: functional, cell-based; conditions: HGC-27, 48 h
PC-3 = experiment: Cytotoxicity against human PC-3 cells assessed as reduction in cell viability measured after 72 hrs by MTT assay; assay type: functional, cell-based; conditions: PC-3, 72 h
MCF7 [19] = experiment: Cytotoxicity against human MCF7 cells assessed as reduction in cell viability measured after 72 hrs by MTT assay; assay type: functional, cell-based; conditions: MCF7, 72 h
PC-9 = experiment: Cytotoxicity against human PC-9 cells assessed as reduction in cell viability incubated for 72 hrs by MTT assay; assay type: functional, cell-based; conditions: PC-9, 72 h
A549 [20] = experiment: Cytotoxicity against human A549 cells assessed as reduction in cell viability incubated for 72 hrs by MTT assay; assay type: functional, cell-based; conditions: A549, 72 h
HCT-116 [21] = experiment: Cytotoxicity against human HCT-116 cells assessed as reduction in cell viability incubated for 72 hrs by MTT assay; assay type: functional, cell-based; conditions: HCT-116, 72 h
MDA-MB-435 [22] = experiment: Cytotoxicity against human MDA-MB-435 cells assessed as reduction in cell viability incubated for 72 hrs by MTT assay; assay type: functional, cell-based; conditions: MDA-MB-435, 72 h
A549 [23] = experiment: Cytotoxicity against human A549 cells assessed as reduction in cell viability measured after 72 hrs by MTT assay; assay type: functional, cell-based; conditions: A549, 72 h

Chain of Histone deacetylase 1 (Q13547 whole entry): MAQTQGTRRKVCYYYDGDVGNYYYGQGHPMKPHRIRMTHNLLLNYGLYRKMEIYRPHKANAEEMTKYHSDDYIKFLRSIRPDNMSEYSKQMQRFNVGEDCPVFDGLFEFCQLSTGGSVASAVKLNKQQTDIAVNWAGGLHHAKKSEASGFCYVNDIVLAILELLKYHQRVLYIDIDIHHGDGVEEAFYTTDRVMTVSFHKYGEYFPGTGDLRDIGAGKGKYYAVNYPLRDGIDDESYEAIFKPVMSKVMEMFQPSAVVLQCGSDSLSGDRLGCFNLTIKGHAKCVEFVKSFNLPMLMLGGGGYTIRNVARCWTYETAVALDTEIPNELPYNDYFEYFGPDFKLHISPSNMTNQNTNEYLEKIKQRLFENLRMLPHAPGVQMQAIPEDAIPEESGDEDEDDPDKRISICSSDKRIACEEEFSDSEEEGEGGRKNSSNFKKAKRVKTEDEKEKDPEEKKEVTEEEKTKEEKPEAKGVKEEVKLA
Chain of Histone deacetylase 2 (Q92769 whole entry): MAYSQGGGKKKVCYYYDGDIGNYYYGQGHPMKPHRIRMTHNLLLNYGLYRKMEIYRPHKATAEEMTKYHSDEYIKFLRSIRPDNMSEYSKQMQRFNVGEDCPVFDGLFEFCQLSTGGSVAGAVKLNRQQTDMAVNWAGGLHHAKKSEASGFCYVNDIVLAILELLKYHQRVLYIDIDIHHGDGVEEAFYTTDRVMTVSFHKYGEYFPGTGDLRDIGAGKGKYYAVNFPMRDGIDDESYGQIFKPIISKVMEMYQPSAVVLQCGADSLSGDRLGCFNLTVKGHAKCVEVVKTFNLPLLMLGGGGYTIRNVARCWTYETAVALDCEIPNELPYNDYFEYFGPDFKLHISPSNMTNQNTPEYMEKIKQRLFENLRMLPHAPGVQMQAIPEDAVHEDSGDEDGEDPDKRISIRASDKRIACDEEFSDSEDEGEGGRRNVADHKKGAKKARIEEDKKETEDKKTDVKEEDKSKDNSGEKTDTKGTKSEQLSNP

IC50 (HCT-116 [1]): < 3 nM
IC50 (MDA-MB-435 [2]): < 3 nM
IC50 (A549 [3]): 2550 nM
SMILES: CN1c2ccccc2C(=O)N2CCc3c([nH]c4c(Cl)cccc34)C21 (configuration not stated)

SMILES: CN1c2ccccc2C(=O)N2CCc3c([nH]c4c([N+](=O)[O-])cc([N+](=O)[O-])cc34)C21 (configuration not stated)
IC50 (HCT-116 [1]): < 200000 nM
IC50 (MDA-MB-435 [2]): > 200000 nM
IC50 (A549 [3]): > 200000 nM

IC50 (A549 [4]): < 3 nM
IC50 (HCT-116 [5]): < 3 nM
IC50 (MDA-MB-435 [2]): < 3 nM
solubility [6]: 11 µg/mL (≈ 34.4 µM)
SMILES: CN1c2ccccc2C(=O)N2CCc3c([nH]c4ccc(O)cc34)C21 (configuration not stated)

SMILES: CN1c2ccccc2C(=O)N2CCc3c(n(C(=O)c4ccc(Cl)cc4)c4ccc(O)cc34)C21 (configuration not stated)
IC50 (MDA-MB-435 [7]): < 2 nM
IC50 (A549 [8]): 26600 nM
IC50 (HCT-116 [9]): 50 nM

IC50 (MCF7 [10]): 520 nM
SMILES: CC(N)C(=O)Nc1ccc2[nH]c3c(c2c1)CCN1C(=O)c2ccccc2N(C)C31 (configuration not stated)

IC50 (MCF7 [10]): 190 nM
SMILES: CN1c2ccccc2C(=O)N2CCc3c([nH]c4ccc(NS(C)(=O)=O)cc34)C21 (configuration not stated)

IC50 (MCF7 [10]): 1800 nM
solubility at 24 h [11]: 10 µg/mL (≈ 31.4 µM)
SMILES: CN1c2ccccc2C(=O)N2CCc3c([nH]c4ccc(N)cc34)C21 (configuration not stated)

IC50 (Huh-7): 740 nM
IC50 (HCCLM9): 9820 nM
IC50 (HepG2 [12]): 2390 nM
SMILES: O=C1c2ccccc2N(c2ccccc2)C2c3[nH]c4ccccc4c3CCN12 (configuration not stated)

IC50 (HCT-116 [13]): 1600 nM
SMILES: CN1c2ccccc2C(=O)N2[C@H](C(=O)Nc3ccc(C(=O)Nc4ccccc4N)cc3)Cc3c([nH]c4ccccc34)[C@@H]12

IC50 (MDA-MB-231): 790 nM
SMILES: CN1c2cc(N)ccc2C(=O)N2CCc3c([nH]c4ccccc34)C21 (configuration not stated)
IC50 (SW-620): 1280 nM

IC50 (Huh-7): 440 nM
IC50 (HCCLM9): 240 nM
IC50 (HepG2 [12]): 920 nM
SMILES: Cc1ccc2[nH]c3c(c2c1)CCN1C(=O)c2ccccc2N(c2ccccc2)C31 (configuration not stated)

IC50 (HepG2 [14]): 18400 nM
IC50 (MCF7 [15]): 2680 nM
SMILES: CN1c2ccccc2C(=O)N2CCc3c(n(S(=O)(=O)c4ccc([N+](=O)[O-])cc4)c4ccccc34)C21 (configuration not stated)

IC50 (A549 [4]): 730 nM
IC50 (MCF7 [17]): 200 nM
IC50 (HCT-116 [5]): 32 nM
SMILES: CN1c2ccccc2C(=O)N2CCc3c([nH]c4ccc(OC(=O)CCCC(=O)Oc5ccc6[nH]c7c(c6c5)CCN5C(=O)c6ccccc6N(C)C75)cc34)C21 (configuration not stated)
IC50 [16]: 580 nM

SMILES: COCCCCn1c2c(c3ccccc31)CCN1C(=O)c3ccccc3N(C)C21 (configuration not stated)
IC50 (MCF7 [18]): < 2000 nM
IC50 (NCI-H460): < 2000 nM
IC50 (DU-145): < 2000 nM
IC50 (HCT-15): < 2000 nM
IC50 (SF-268): < 2000 nM

IC50 (A549 [4]): 680 nM
IC50 (MCF7 [17]): 890 nM
IC50 (HCT-116 [5]): 32 nM
SMILES: CN1c2ccccc2C(=O)N2CCc3c([nH]c4ccc(OC(=O)CCC(=O)Oc5ccc6[nH]c7c(c6c5)CCN5C(=O)c6ccccc6N(C)C75)cc34)C21 (configuration not stated)
IC50 [16]: 210 nM

IC50 (Histone deacetylase 1): 18 nM
IC50 (HCT-116 [5]): 180 nM
IC50 (Histone deacetylase 2): 230 nM
SMILES: CN1c2ccc(NCc3ccc(/C=C/C(=O)NO)cc3)cc2C(=O)N2CCc3c([nH]c4ccc(O)cc34)C21 (configuration not stated)

SMILES: COc1ccc2c(c1)c1c(n2C(=O)c2cc(OC)c(OC)c(OC)c2)C2Oc3ccccc3C(=O)N2CC1 (configuration not stated)
IC50 (HGC-27): 6100 nM

SMILES: Cc1cc2c(s1)N(C)C1c3[nH]c4ccccc4c3CCN1C2=O (configuration not stated)
IC50 (PC-3): 7770 nM
IC50 (MCF7 [19]): 9020 nM
IC50 (PC-9): 9460 nM
IC50 (A549 [20]): 10400 nM

SMILES: CN1c2ccc(-c3ccnc(N4CCNCC4)c3)cc2C(=O)N2CCc3c([nH]c4ccccc34)C21 (configuration not stated)
IC50 (HCT-116 [21]): 5940 nM
IC50 (MDA-MB-435 [22]): 2780 nM
IC50 (A549 [23]): 6800 nM

IC50 (Histone deacetylase 1): 4 nM
IC50 (HCT-116 [5]): 230 nM
IC50 (Histone deacetylase 2): 5 nM
SMILES: CN1c2ccc(NCC3CCN(c4ncc(C(=O)NO)cn4)CC3)cc2C(=O)N2CCc3c([nH]c4ccc(O)cc34)C21 (configuration not stated)

SMILES: CN1c2ccc(NC(=O)CBr)cc2C(=O)N2CCc3c([nH]c4ccccc34)C21 (configuration not stated)
IC50 (HCT-116 [21]): 28000 nM
IC50 (MDA-MB-435 [22]): 22700 nM
IC50 (A549 [23]): 154000 nM

IC50 (Huh-7): 780 nM
IC50 (HCCLM9): 1630 nM
IC50 (HepG2 [12]): 21500 nM
SMILES: CN1c2ccccc2C(=O)N2CCc3c([nH]c4ccccc34)C21 (configuration not stated)
IC50 (HGC-27): 2280 nM
